Earlier results in article PMC7956819, “Peptides from the Intestinal Tract of Breast Milk-Fed Infants Have Antimicrobial and Bifidogenic Activity” (International Journal of Molecular Sciences, 2021).
Entries after “also recorded” stand apart in the source; their conditions may differ.

Details: function listed in the MBPDB for the identical sequence; not tested here; cited from earlier work
Text: page 3: Ta ble S1. List of known bioactive peptides in the infant intestinal samples.

| Substance | Function (known bioactive peptides in the infant intestinal samples) |
| --- | --- |
| AASDISLLDAQSAPLR | Antimicrobial |
| ALKALPMHIR | Cell-proliferative |
| ALNEINQFYQK | ACE-inhibitory |
| ALPMHIR | ACE-inhibitory; also recorded: Cell-proliferative |
| AMKPWIQPK | ACE-inhib itory |
| DAQSAPLRVY | ACE-inhibitory |
| DKIYPSFQPQPLIYP | ACE-inhibitory |
| ENLHLPLP | ACE-inhibitory |
| ENLHLPLPLL | ACE-inhibitory |
| EPVLGPVRGPFP | ACE-inhibitory |
| FALPQYLK | ACE-inhibitory; also recorded: Antioxidant |
| FFVAPFPEVFGK | ACE-inhib itory |
| FPEVFGK | ACE-inhib itory |
| FQPQPLIYP | ACE-inhibitory |
| FSDKIAK | ACE-inhibitory; also recorded: Antimicrobial |
| FVAPFPEVFG | ACE-inhib itory |
| GLDIQKVAGT | Antimicrobial |
| HPHPHLSF | ACE-inhibitory |
| IGSENSEKTTMP | ACE-inhib itory |
| IIAEKTKIPAVF | Antimicrobial |
| IKHQGLPQEV | Antimicrobial |
| INNQFLPYPY | DPP-I V-inhibitory |
| IQKVAGTW | ACE-inhibitory; also recorded: DPP-IV-inhibitory |
| IQPKTKVIPYVR | Antimicrobial |

| Substance | Function (known bioactive peptides in the infant intestinal samples) |
| --- | --- |
| IYPSFQPQPLIYP | ACE-inhibitory |
| LDIQKVAGTW | ACE-inhibitory |
| LENLHLPLP | ACE-inhibitory |
| LIVTQTMK | Cytotoxic |
| LKALPMH | ACE-inhibitory; also recorded: DPP-IV-inhibitory |
| LKPTPEGDL | DPP-IV-inhibitory |
| LKPTPEGDLE | DPP-IV-inhibitory |
| LLNQELLLNPTHQIYPV | Antimicrobial |
| LLYQEPVLGPVRGPFPIIV | ACE-inhibitory |
| LPQNIPPLT | DPP-IV-inhibitory |
| LRLKKYKVPQL | Antimicrobial |
| LTDLENLHLP | ACE-inhibitory |
| LVYPFPGPI | ACE-inhibitory |
| LYQEPVLGPVRGPFPIIV | Immunomodulatory |
| MAIPPKKNQDKTEIPTINT | Antimicrobial |
| MPFPKYPVEP | ACE-inhibitory |
| NLHLPLP | ACE-inhibitory |
| NLHLPLPLL | ACE-inhibitory |
| PVVVPPFLQPE | Antimicrobial |
| PYVRYL | ACE-inhibitory; also recorded: Antimicrobial; also recorded: Antioxidant |
| QELLLNPTHQIYPVTQPLAPVHNPISV | Antimicrobial |
| QEPVLGPVRGPFPIIV | ACE-inhibitory |
| QVVPYPQ | Antioxidant |
| RELEELNVPGEIVESLSSSEESITR | Caseinophosphopeptide; also recorded: Immunomodulatory |

| Substance | Function (known bioactive peptides in the infant intestinal samples) |
| --- | --- |
| RETIESLSSSEESITEYK | Cell-proliferative |
| SDIPNPIGSENSEK | Antimicrobial |
| SPTIPFFDPQIPK | Cell-proliferative |
| TEDELQDKIHPF | Antimicrobial |
| TKKTKLTEEEKNRL | Antimicrobial |
| TKVIPYVRYL | Antimicrobial |
| TPEVDDEALEK | Antimicrobial; also recorded: DPP-IV-inhibitory |
| TVYTKGRVMP | ACE-inhibitory |
| VENLHLPLPLL | ACE-inhibitory |
| VKEAMAPK | Antimicrobial; also recorded: Antioxidant |
| VLGPVRGPFP | ACE-inhibitory |
| VLPVPQKAVPYPQR | Antimicrobial |
| VLVLDTDYK | Antimicrobial; also recorded: DPP-IV-inhibitory |
| VYPFPGPI | PEP-inhibitory |
| VYPFPGPIPN | ACE-inhibitory; also recorded: Antioxidant |
| VYVEELKPTPEGDLEILLQK | Hypocholesterolemic |
| WSVPQPK | ACE-inhibitory; also recorded: Antioxidant |
| YANPAVVRP | ACE-inhibitory |
| YLGYLEQLLR | Anxiolytic |
| YQEPVLGPVR | ACE-inhibitory; also recorded: Immunomodulatory |
| YQEPVLGPVRGPFPI | Antimicrobial |
| YQEPVLGPVRGPFPIIV | ACE-inhibitory; also recorded: Antimicrobial; also recorded: Antithrombin; also recorded: Immunomodulatory |
| YQKFPQY | ACE-inhibitory; also recorded: Antioxidant |
